According to patent publication US20260263443A1, “COMPOUND FOR TREATMENT OF FEMALE SEXUAL DYSFUNCTION” (Initiator Pharma A/S, priority 2022, published 2026):
Structures can show the parent of a compound that is named as a salt. Where two headings read alike, the source gives them in different places.

Legend:
[1] = test system: female Sprague Daley rats; experiment: Laser Doppler measurement of clitoral blood flow in anaesthetized female rats; format: in vivo, rat
Method: (§1) Animals: The experimental setup was run in two different sets of measurement procedures to avoid a variation given by each other. The first set of experiments was run in control female rats, and the second set was run in a depressed model called Flint Sensitive Line (FSL), which shares molecular similarities to major depressive patients.
(§2) Anesthesia and general surgical procedure: The rats were injected intraperitoneally with pentobarbital 50 mg/Kg. After 10 min in dark conditions a pinch of the interdigital area confirmed unresponsive of reflexes and the animal was prepared on a table, where legs were semi-extended by tape to fix the animal. The areas of interest (abdomen-inguinal and neck) were shaved and clean-disinfected with water and ethanol. After each study was completed, the animal was sacrificed by an overdose of pentobarbital, and the Atlanto-occipital joint was severed to guarantee a painless procedure for the animal.
Measurements of clitoral blood flow and genital temperature: A suture Nylon 4-0 with a needle was used to extend the urethra opening and expose the mucosa. […] A calibrated laser Doppler flow probe (VP1T, Moor instruments-UK) was used to measure on the front-side of the clitoris, which was connected to the laser Doppler flow monitor; MOORVMS-LDF2 (Moor instruments-UK). A laser Doppler probe was positioned and fixed to a base and a crocodile clamp in order to avoid any movement. The tip of the calibrated probe was immersed in a water-based gel in the exposed area of the urethra-clitoris (FIG. 1B).
A calibrated laser Doppler flow probe (VP1T, Moor instruments-UK) was used to measure on the front-side of the clitoris, which was connected to the laser Doppler flow monitor; MOORVMS-LDF2 (Moor instruments-UK). […] The infusion protocol was performed in sets of 1 min infusion +4 min of further recording of blood flow changes recorded by the system. Electrical field stimulation of the cavernous nerve to the clitoris was utilized as a positive control as described below.
Measurements of clitoral blood flow following electrical stimulation of the cavernous nerve to the clitoris: Through a lower abdominal incision, the cavernous nerve to clitoris was isolated, and electrical stimulation was performed with a slender bipolar platinum electrode, which was connected to a S48 stimulator (Grass Instrument Co., Boston, MA, U.S.A.). To investigate whether stimulation of the nerve leads to hemodynamic changes in the clitorial tissue, the nerve was stimulated as previously described for male rats, with parameters eliciting the maximum amplitude of response (square wave pulses of 6 Volts, 10 Hz, 1 ms for 30 s), and flow was measured with laser Doppler. Clitoral blood flow was measured via laser Doppler as aforementioned.

[2] = biological target: T1, dopamine (DA) reuptake in synaptosomes (Rattus norvegicus, UniProt P23977); experiment: Inhibition of dopamine (DA) reuptake in synaptosomes; format: biochemical; conditions: 3H-DA, read-out: DA-uptake IC50
T1 construct: in synaptosomes as described in WO 97/16451; from tissue
Method: (§3) Compounds were tested for their ability to inhibit the reuptake of the monoamine neurotransmitters dopamine (DA), noradrenaline (NA), and serotonin (5-HT) in synaptosomes as described in WO 97/16451 (NeuroSearch A/S).
(§4) The test values are given as IC50 (the concentration (μM) of the test substance which inhibits the specific binding of ^3H-DA, ^3H-NA, or ^3H-5-HT by 50%).

[3] = biological target: T1, dopamine (DA) reuptake in synaptosomes; conditions: reported in U.S. Pat. No. 9,133,184 B1; cited from earlier work
[4] = biological target: T2, noradrenaline (NA) reuptake in synaptosomes (Rattus norvegicus, UniProt Q63380); conditions: reported in U.S. Pat. No. 9,133,184 B1; cited from earlier work
T2 construct: in synaptosomes as described in WO 97/16451; from tissue

[5] = biological target: T2, noradrenaline (NA) reuptake in synaptosomes; experiment: Inhibition of noradrenaline (NA) reuptake in synaptosomes; format: biochemical; conditions: 3H-NA, read-out: NA-uptake IC50
Method: as §3, §4

[6] = test system: female Sprague Daley rats; experiment: Mean arterial pressure and heart rate in anaesthetized female rats; format: in vivo, rat; conditions: infusion 0.3 to 10 mg/kg, versus vehicle
Method: Measurements mean arterial pressure and heart rate: The anaesthetized rats breathed spontaneously and body temperature was monitored continuously, and maintained at 37.5° C. by placing them on a heating blanket. A heparinized (100 IE mL-1) polyethylene (PE) catheter (PE-50) connected to a pressure transducer (Disposable BP Transducer, AD Instruments, UK) was introduced into the carotid artery to measure MAP. Following a stabilization period of 10-20 min, continuous direct measurements of mean arterial pressure (MAP) and heart rate (HR) were obtained, registered, and analysed on a computerized data acquisition system (PowerLab, ADInstruments).

[7] = test system: Female Sprague Dawley rats; experiment: Sexual (paracopulatory) behaviour of estrus-synchronized female rats paired with male rats; format: in vivo, rat
Method: Animals: Female Sprague Dawley rats (12-15 weeks old) were housed in the animal facility in Universal Euro Ill type long width cages with standard wood bedding and space for 2 rats with a clean environment, and a comfortable temperature (22-23° C.) with 12:12 h light-dark cycle starting at 11 am and they had free access to food and tap water.
Synchronization of the sexual cycle in estrus of female rats: Female Sprague Dawley rats with an average weight of 250 g were synchronized in the estrus phase of the sexual cycle by injecting with 250 μg prostaglandin F2α (PGF2α) subcutaneously at day 0 and day 3.
To investigate the sexual behavior, the synchronized female rats were paired with trained male rats and behaviour recorded by two cameras. The videos were quantified by a trained operator blinded for the treatments.
Data analysis and statistics: Statistical differences between vehicle, apomorphine and two different doses of IP2015 were analysed using one-way analysis of variance (ANOVA) followed by Tukey post-test. The assumptions of the models were investigated by inspecting Q-Q plots and data were logarithmically transformed when necessary in order to generate a Gaussian-distributed data set. In case where the data were skewed, the Brown-Forsythe test was applied. The ROUT method (Q=1%) was used to exclude data from the analysis. A P<0.05 was considered statistically significant. Post-tests were only done if F was significant and there was no variance inhomogeneity. All statistical analyses were performed using GraphPad Prism 9.5 software (GraphPad Software, CA, USA).

depressed FSL rats = experiment: Thermographic measurement of genital temperature in female rats; format: in vivo, rat
Method: as §1, §2
A thermographic FLIR camera (E96, InfraTec, Germany, FIG. 1) was positioned at 50 cm distance from the area of interest (FIG. 1C). Three areas (thorax, vagina, and urethral-clitoris) of interest were recorded by digital markers positioned using the Research Studio-FLIR, and data were extracted and imported to Excel.

[8] = infusion 0.3 to 10 mg/kg via jugular vein
[9] = infusion 0.3 to 10 mg/kg via jugular vein, laser Doppler
[10] = depressed FSL rats, infusion of increasing doses 0.3-10 mg/Kg, thermography 4x zoom

T1 sequence (P23977 whole entry): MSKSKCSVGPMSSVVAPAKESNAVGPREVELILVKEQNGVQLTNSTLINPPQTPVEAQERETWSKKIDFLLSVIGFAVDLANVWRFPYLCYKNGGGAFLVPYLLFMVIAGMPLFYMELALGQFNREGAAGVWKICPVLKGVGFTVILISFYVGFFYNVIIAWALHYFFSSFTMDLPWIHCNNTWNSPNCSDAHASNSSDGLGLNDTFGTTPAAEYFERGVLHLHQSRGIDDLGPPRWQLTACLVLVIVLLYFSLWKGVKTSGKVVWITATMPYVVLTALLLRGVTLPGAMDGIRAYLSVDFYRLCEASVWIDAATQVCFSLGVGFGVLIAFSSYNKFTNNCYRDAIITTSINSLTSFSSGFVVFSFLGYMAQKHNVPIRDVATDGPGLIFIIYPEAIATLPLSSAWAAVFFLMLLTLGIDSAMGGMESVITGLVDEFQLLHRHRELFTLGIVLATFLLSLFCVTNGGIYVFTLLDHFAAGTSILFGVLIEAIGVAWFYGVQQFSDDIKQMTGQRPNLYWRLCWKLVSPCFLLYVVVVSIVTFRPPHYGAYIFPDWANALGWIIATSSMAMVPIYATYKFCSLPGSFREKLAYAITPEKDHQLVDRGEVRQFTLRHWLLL
T2 sequence (Q63380 1-617): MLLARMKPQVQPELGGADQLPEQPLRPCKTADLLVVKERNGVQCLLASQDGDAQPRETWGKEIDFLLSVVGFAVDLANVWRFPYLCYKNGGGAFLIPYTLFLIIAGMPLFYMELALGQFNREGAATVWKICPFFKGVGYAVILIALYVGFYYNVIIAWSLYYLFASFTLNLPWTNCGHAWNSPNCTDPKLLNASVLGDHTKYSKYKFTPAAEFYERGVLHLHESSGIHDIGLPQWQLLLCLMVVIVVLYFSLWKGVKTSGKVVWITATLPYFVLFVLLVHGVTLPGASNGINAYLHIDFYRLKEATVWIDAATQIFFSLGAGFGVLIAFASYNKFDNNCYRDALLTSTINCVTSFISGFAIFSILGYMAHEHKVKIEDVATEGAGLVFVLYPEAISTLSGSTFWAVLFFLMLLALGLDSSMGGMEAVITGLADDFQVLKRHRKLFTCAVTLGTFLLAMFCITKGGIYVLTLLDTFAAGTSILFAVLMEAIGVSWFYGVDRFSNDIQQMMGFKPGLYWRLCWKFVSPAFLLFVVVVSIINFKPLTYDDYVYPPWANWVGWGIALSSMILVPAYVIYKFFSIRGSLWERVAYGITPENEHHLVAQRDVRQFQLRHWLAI

SMILES	average clitoral blood flow compared to vehicle [1, 8]	peak clitoral blood flow compared to vehicle [1, 8]	duration of blood flow in the clitoral area [1, 9]	frequency of blood flow in the clitoral area [1, 9]	magnitude of blood flow in the clitoral area [1, 9]	Peak clitoral blood flow following infusion ([1]; laser Doppler trace, electrical stimulation of cavernous nerve gave 4.31 V)	IC50 [2]	IC50 [3]	IC50 [4]	IC50 [5]	heart rate (HR) [6]	mean arterial pressure (MAP) [6]	number of hops compared to apomorphine ([7]; 10 mg/kg)	darts compared with vehicle and apomorphine ([7]; 1 and 10 mg/kg)	ear wiggling ([7]; single injection, 1 and 10 mg/kg)	temperature in the clitoral area (depressed FSL rats; [10])	temperature in the vagina (depressed FSL rats; [10])	core temperature (anal thermometer) (depressed FSL rats; during infusion of IP2015)	paracopulatory parameters (hops, ear wiggling, darts) ([7]; 0.25 mg/kg)
COc1cc2ccc(O[C@@H]3C[C@H]4CC[C@@H](C3)N4)cc2oc1=O [IP2015, exo-7-[(8-azabicyclo[3.2.1]octan-3-yl)oxy]-3-methoxy-chromen-2-one hydrochloride]	significantly increased	significantly increased	increased	increased	increased	4.49 V	70 nM	70 nM	3.8 nM	3.8 nM	significantly increased	comparable to vehicle	increased	dose-dependently increased	did not change	dose-dependent increases	dose-dependent increases	unchanged	
CN1CCc2cccc3c2[C@H]1Cc1ccc(O)c(O)c1-3 [apomorphine, reference compound]																			did not change
